{
  "source": "patent US20250152593A1",
  "about": "“p38 MAPK INHIBITORS AND USES THEREOF” (CITY OF HOPE, priority 2023, published 2025)",
  "key": {"Hut78 cells": {"system": "Hut78 cells", "test": "combination study of HDAC inhibitors and CEM451 with Hut78 cells", "format": "cell-based", "conditions": "for Effect of Romidepsin / Effect of SAHA / Effect of CEM451: Hut78"}, "[1]": {"system": "RPMI8226 multiple myeloma cells", "test": "combination of SAHA and CEM451 with RPMI8226 multiple myeloma cells", "format": "cell-based", "conditions": "for Effect of SAHA / Effect of CEM451: RPMI8226"}, "p38 MAPK alpha": {"target": "p38 MAPK alpha (Homo sapiens, UniProt Q16539)", "sequence (Q16539 whole entry)": "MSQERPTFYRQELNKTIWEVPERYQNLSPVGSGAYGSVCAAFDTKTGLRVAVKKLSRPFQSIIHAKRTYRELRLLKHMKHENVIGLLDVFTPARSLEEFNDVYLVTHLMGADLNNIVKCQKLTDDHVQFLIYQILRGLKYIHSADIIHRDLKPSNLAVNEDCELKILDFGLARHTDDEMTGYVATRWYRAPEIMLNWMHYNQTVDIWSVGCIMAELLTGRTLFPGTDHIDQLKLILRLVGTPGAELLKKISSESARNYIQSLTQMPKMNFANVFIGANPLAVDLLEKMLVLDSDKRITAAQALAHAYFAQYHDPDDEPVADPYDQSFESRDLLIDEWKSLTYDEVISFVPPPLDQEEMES", "test": "in vitro kinase assay, p38 MAPK alpha catalytic activity", "format": "biochemical", "procedure": "(§1) FIGS. 6A-6C. In vitro kinase assays for p38a (FIG. 6A), p38β(FIG. 6B), and […] (FIG. 6C) at 100 nM.\n(§2) Quinazoline derivatives were initially tested with various cancer types of cell lines using a cell-based assay."}, "hematopoietic cell lines": {"system": "hematopoietic cell lines", "test": "antitumor activity against hematopoietic cell lines", "format": "cell-based", "source_text": "as §2"}, "p38 MAPK beta": {"target": "p38 MAPK beta (Homo sapiens, UniProt Q15759)", "sequence (Q15759 whole entry)": "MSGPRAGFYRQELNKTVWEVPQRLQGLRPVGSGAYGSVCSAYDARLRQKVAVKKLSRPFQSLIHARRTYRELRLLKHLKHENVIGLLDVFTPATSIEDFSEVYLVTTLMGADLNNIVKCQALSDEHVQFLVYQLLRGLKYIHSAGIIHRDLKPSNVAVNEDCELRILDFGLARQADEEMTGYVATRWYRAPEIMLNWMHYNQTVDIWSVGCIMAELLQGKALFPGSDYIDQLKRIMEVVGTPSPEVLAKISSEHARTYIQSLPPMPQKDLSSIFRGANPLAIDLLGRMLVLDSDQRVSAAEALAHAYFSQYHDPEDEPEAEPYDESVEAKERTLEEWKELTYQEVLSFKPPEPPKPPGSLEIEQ", "test": "in vitro kinase assay, p38 MAPK beta catalytic activity", "format": "biochemical", "procedure": "as §1, §2"}, "K562 CML cells": {"system": "K562 CML cells", "test": "cell-based assay, K562 CML cells", "conditions": "Homo sapiens, read-out: IC50 against K562 CML cells", "source_text": "as §2"}},
  "data": [
    {"compound": "C/C=C1\\NC(=O)[C@H]2CSSCC/C=C/[C@H](CC(=O)N[C@H](C(C)C)C(=O)N2)OC(=O)[C@H](C(C)C)NC1=O", "note": "[Romidepsin, reference compound]", "values": [
      {"measurement": "Effect of Romidepsin", "setting": "Hut78 cells; Romidepsin 0.001 μM", "value": 0.1},
      {"measurement": "Effect of Romidepsin", "setting": "Hut78 cells; Romidepsin 0.0015 μM", "value": 0.58},
      {"measurement": "Effect of Romidepsin", "setting": "Hut78 cells; Romidepsin 0.002 μM", "value": 0.92}
    ]},
    {"compound": "O=C(CCCCCCC(=O)Nc1ccccc1)NO", "note": "[SAHA, reference compound]", "values": [
      {"measurement": "Effect of SAHA", "setting": "Hut78 cells; high doses study, SAHA 0.6 μM", "value": 0.16},
      {"measurement": "Effect of SAHA", "setting": "Hut78 cells; high doses study, SAHA 0.9 μM", "value": 0.27},
      {"measurement": "Effect of SAHA", "setting": "Hut78 cells; high doses study, SAHA 1.2 μM", "value": 0.74},
      {"measurement": "Effect of SAHA", "setting": "Hut78 cells; low doses study, SAHA 0.6 μM", "value": 0.3},
      {"measurement": "Effect of SAHA", "setting": "Hut78 cells; low doses study, SAHA 0.9 μM", "value": 0.59},
      {"measurement": "Effect of SAHA", "setting": "Hut78 cells; low doses study, SAHA 1.2 μM", "value": 0.84},
      {"measurement": "Effect of SAHA", "setting": "[1]; SAHA 0.6 μM", "value": 0.63},
      {"measurement": "Effect of SAHA", "setting": "[1]; SAHA 0.9 μM", "value": 0.8},
      {"measurement": "Effect of SAHA", "setting": "[1]; SAHA 1.2 μM", "value": 0.91}
    ]},
    {"compound": "Cc1ccc(NC(=O)c2cccc(C(F)(F)F)c2)cc1Nc1ncnc2nc(NC3CC3)ncc12", "note": "[CEM451, N-(3-((7-(cyclopropylamino)pyrimido[4,5-d]pyrimidin-4-yl)amino)-4-methylphenyl)-3-(trifluoromethyl)benzamide]", "values": [
      {"measurement": "IC50", "setting": "p38 MAPK alpha", "value": 0.0062, "unit": "µM"},
      {"measurement": "antitumor activities against hematopoietic cell lines", "setting": "hematopoietic cell lines", "value": "broadly showed antitumor activities"},
      {"measurement": "IC50", "setting": "p38 MAPK beta", "value": 0.013, "unit": "µM"},
      {"measurement": "Effect of CEM451", "setting": "Hut78 cells; Romidepsin combination study, CEM451 5 μM", "value": 0.57},
      {"measurement": "Effect of CEM451", "setting": "Hut78 cells; Romidepsin combination study, CEM451 10 μM", "value": 0.72},
      {"measurement": "Effect of CEM451", "setting": "Hut78 cells; Romidepsin combination study, CEM451 15 μM", "value": 0.83},
      {"measurement": "Effect of CEM451", "setting": "Hut78 cells; high doses study with SAHA, CEM451 5 μM", "value": 0.48},
      {"measurement": "Effect of CEM451", "setting": "Hut78 cells; high doses study with SAHA, CEM451 10 μM", "value": 0.65},
      {"measurement": "Effect of CEM451", "setting": "Hut78 cells; high doses study with SAHA, CEM451 15 μM", "value": 0.81},
      {"measurement": "Effect of CEM451", "setting": "Hut78 cells; low doses study, CEM451 0.5 μM", "value": 0.24},
      {"measurement": "Effect of CEM451", "setting": "Hut78 cells; low doses study, CEM451 1 μM", "value": 0.26},
      {"measurement": "Effect of CEM451", "setting": "Hut78 cells; low doses study, CEM451 3 μM", "value": 0.45},
      {"measurement": "effect in combination with SAHA", "setting": "Hut78 cells; Hut78 CTCL cells", "value": "synergistic effects"},
      {"measurement": "IC50", "setting": "K562 CML cells", "value": 0.54, "unit": "µM"},
      {"measurement": "Effect of CEM451", "setting": "[1]; CEM451 5 μM", "value": 0.47},
      {"measurement": "Effect of CEM451", "setting": "[1]; CEM451 10 μM", "value": 0.71},
      {"measurement": "Effect of CEM451", "setting": "[1]; CEM451 15 μM", "value": 0.81},
      {"measurement": "effect in combination with SAHA", "setting": "[1]; RPMI8226 MM cells", "value": "synergistic effects"}
    ]}
  ]
}
